{
  "source": "the NIST ThermoML archive (doi:10.1021/je0498661)",
  "conditions": "101.33 kPa, Liquid, Hot wire method",
  "note": "Numbers after ± are expanded uncertainties.",
  "data": [
    {"smiles": "CCSCC", "note": "[3-thiapentane]", "values": [
      {"measurement": "thermal conductivity", "setting": "273.15 K", "value": "0.145 ± 0.003", "unit": "W/m/K"},
      {"measurement": "thermal conductivity", "setting": "293.15 K", "value": "0.14 ± 0.003", "unit": "W/m/K"},
      {"measurement": "thermal conductivity", "setting": "313.15 K", "value": "0.137 ± 0.003", "unit": "W/m/K"},
      {"measurement": "thermal conductivity", "setting": "333.15 K", "value": "0.13 ± 0.003", "unit": "W/m/K"}
    ]},
    {"smiles": "CN(C)CCN(C)C", "note": "[N,N,N',N'-tetramethyl-1,2-diaminoethane]", "values": [
      {"measurement": "thermal conductivity", "setting": "273.15 K", "value": "0.154 ± 0.003", "unit": "W/m/K"},
      {"measurement": "thermal conductivity", "setting": "293.15 K", "value": "0.15 ± 0.003", "unit": "W/m/K"},
      {"measurement": "thermal conductivity", "setting": "313.15 K", "value": "0.144 ± 0.003", "unit": "W/m/K"},
      {"measurement": "thermal conductivity", "setting": "333.15 K", "value": "0.135 ± 0.003", "unit": "W/m/K"}
    ]},
    {"smiles": "CC#N", "note": "[acetonitrile]", "values": [
      {"measurement": "thermal conductivity", "setting": "273.15 K", "value": "0.207 ± 0.004", "unit": "W/m/K"},
      {"measurement": "thermal conductivity", "setting": "293.15 K", "value": "0.195 ± 0.004", "unit": "W/m/K"},
      {"measurement": "thermal conductivity", "setting": "313.15 K", "value": "0.183 ± 0.004", "unit": "W/m/K"}
    ]},
    {"smiles": "C1CCCNCC1", "note": "[azacycloheptane]", "values": [
      {"measurement": "thermal conductivity", "setting": "273.15 K", "value": "0.141 ± 0.003", "unit": "W/m/K"},
      {"measurement": "thermal conductivity", "setting": "293.15 K", "value": "0.137 ± 0.003", "unit": "W/m/K"},
      {"measurement": "thermal conductivity", "setting": "313.15 K", "value": "0.131 ± 0.003", "unit": "W/m/K"},
      {"measurement": "thermal conductivity", "setting": "333.15 K", "value": "0.126 ± 0.003", "unit": "W/m/K"}
    ]},
    {"smiles": "C1CCSC1", "note": "[tetrahydrothiophene]", "values": [
      {"measurement": "thermal conductivity", "setting": "273.15 K", "value": "0.12 ± 0.003", "unit": "W/m/K"},
      {"measurement": "thermal conductivity", "setting": "288.15 K", "value": "0.117 ± 0.002", "unit": "W/m/K"},
      {"measurement": "thermal conductivity", "setting": "303.15 K", "value": "0.115 ± 0.002", "unit": "W/m/K"},
      {"measurement": "thermal conductivity", "setting": "318.15 K", "value": "0.112 ± 0.002", "unit": "W/m/K"},
      {"measurement": "thermal conductivity", "setting": "333.15 K", "value": "0.11 ± 0.002", "unit": "W/m/K"}
    ]}
  ]
}
